{
  "source": "patent US5760214A",
  "about": "“Bone resorption inhibition/osteogenesis promotion compound” (Iskra Industry Co., Ltd., priority 1993, dated 1998)",
  "key": {"[1]": {"test_system": "osteoblast originating from the calvaria of Whister rats", "experiment": "Osteogenesis Test (1) (Experiment 3), von Kossa dyeing", "type": "cell-based", "conditions": "10^-8 M, addition in calcification period", "description": "A first generation incubation system of the osteoblast originating from the calvaria of Whister rats (female, 6-months' age) was used as the test cells. After the start of incubation, the sample drug (compound 1-3) was added once a day to the medium in a dose of 10^-6 M, 10^-8 M or 10^-9 M on the second and third days (propagation period). Alternatively, the compound 1-3 in the amount described above was added once a day to the medium for 4 days (calcification period) from the seventh day from the start of incubation. On the fourteenth day from the start of incubation, the cells were subjected to von Kossa dyeing and detection of phosphates was carried out. The area of the bone knots which were dyed to brown was confirmed by the naked eye and was used as the index for osteogenesis."}, "[2]": {"experiment": "Intracorporeal Distribution of Compound (Experiment 1)", "type": "in vivo", "conditions": "mice, 20 μCi/20 g; for drug concentration in blood: i.v. tail vein, 3H, mean; for drug quantity in tissue: brain / drug quantity in tissue: muscle / drug quantity in tissue: stomach: i.v.", "description": "The compound 1-3 produced in Synthesis Example 1-3 was subjected to radioactive labelling by ^3 H (0.34 mCi/mg), and was injected into the vein of the tail of mice in a dosage of 20 μCi/20 g. Groups of mice each comprising five mice were killed at 1 minute, 5 minutes, 15 minutes, 30 minutes, 1 hour, 4 hours, 6 hours, 24 hours, 48 hours and 72 hours after the injection, and 50 μl of the blood was collected from the eye socket of each mouse. Further, the heart, the womb, the small intestine, bones (thighbone), etc., were collected from each mouse, and 50 mg of the tissue (50 μl for the blood) was placed into a plastic test tube. Further, 0.2 ml of perchloric acid, 0.4 ml of hydrogen peroxide and a drop of n-octyl alcohol were put into the test tube, and the test tube was left in a water bath at 75° C. for 45 minutes. Next, 0.1 ml of this digestive fluid was sampled and was placed into a bottle storing a scintillating solution and furthermore, 5 ml of 0.5% scintillating solution was mixed. After the solution became transparent, it was placed into an FJ2105 liquid scintillation counter so as to measure radioactivity and to determine cpm of the sample. Separately, dpm of 52 samples obtained from four groups of animals was measured (External Standard Method).\nThe quantity of the drug inside the tissue was determined in the following way.\nDrug quantity in tissue (cpm/mg)=(sample cpm).div.(digested tissue quantity (mg))\nDrug quantity in tissue (μg/mg)=(sample cpm/mg×6)[…](count efficiency (E)×2.22×10^7 ×0.34 mCi/mg (specific radioactivity))"}, "[3]": {"test_system": "mice", "experiment": "Acute Toxicity Test (Experiment 2)", "type": "in vivo, mice (Kunming species)", "conditions": "for No. of dead animals: of 10 animals", "description": "The compound 1-3 was pale yellow crystalline poweder and its lot number was 930113. The solution was a pale yellow transparent solution, and has a concentration of 50 mg/ml and a pH of about 5. It was offered from Osteoporosis Research Laboratory, Department of Pharmacy, West China University of Medical Science School (WCUMS).\nKunming species mice, health: first class, weight: 18 to 21 g, half male and half female. The mice were offered from Experimental Animal Center of WCUSM.\nFour to five dose groups were prepared in equal ratios (1:0.7 to 0.8) within the LD range of 0 to 100% obtained by preliminary tests. The drug for peroral administration was prepared by suspending the solid compound 1-3 in 1% CMCNa2 to form a suspension. For injection, drug solutions having different concentrations were prepared by dissolving the compound 1-3 in physiological saline solution by a low specific gravity dilution method. The animals were starved (but without limiting water), and 20 hours later, ten mice were grouped at random into each group irrespective of their sex and body weight. The drug was dosed once a day in a dose of 0.2 ml/10 g and the animals were inspected. Dead animals were dissected and any change of the morbid state was examined with by the naked eye.\nAfter the chemical was dosed once in the maximum concentration and in the maximum capacity for peroral administration to 20 mice (10 males and 10 females), the animals were examined for 7 days. […] The maximum tolerance dose (MTD) was >6 g/kg."}, "[4]": {"test_system": "synthesis of bone proteins", "conditions": "cell level, U.S. Pat. No. 4,925,833; cited from earlier work"}, "[5]": {"conditions": "peroral, maximum concentration, single dose, 7 days"}},
  "data": [
    {"smiles": "CN(C)C1C(=O)C(C(=O)NCN2CCN(CCOc3ccc4c(c3)CCC3C4CCC4(C)C(=O)CCC34)CC2)=C(O)C2(O)C(=O)C3=C(O)c4c(O)cccc4C(C)(O)C3CC12", "note": "(stereo not shown) [Compound 1-3, N-4-[17-oxy-estra-1,3,5 (10)-trien-3-oxyethyl]-piperazine-1-methylene-tetracycline]", "values": [
      {"measurement": "Osteogenesis promotion function, calcification period", "setting": "[1]", "value": ".uparw. .uparw."},
      {"measurement": "drug concentration in blood", "setting": "[2]; 1 min", "value": 8665, "unit": "cpm/50 μl"},
      {"measurement": "drug concentration in blood", "setting": "[2]; 5 min", "value": 5238, "unit": "cpm/50 μl"},
      {"measurement": "drug concentration in blood", "setting": "[2]; 15 min", "value": 2638, "unit": "cpm/50 μl"},
      {"measurement": "drug concentration in blood", "setting": "[2]; 30 min", "value": 2347, "unit": "cpm/50 μl"},
      {"measurement": "drug concentration in blood", "setting": "[2]; 1 hr", "value": 952, "unit": "cpm/50 μl"},
      {"measurement": "drug concentration in blood", "setting": "[2]; 4 hr", "value": 659, "unit": "cpm/50 μl"},
      {"measurement": "drug concentration in blood", "setting": "[2]; 6 hr", "value": 715, "unit": "cpm/50 μl"},
      {"measurement": "drug concentration in blood", "setting": "[2]; 24 hr", "value": 523, "unit": "cpm/50 μl"},
      {"measurement": "drug concentration in blood", "setting": "[2]; 48 hr", "value": 272, "unit": "cpm/50 μl"},
      {"measurement": "drug concentration in blood", "setting": "[2]; 72 hr", "value": 190, "unit": "cpm/50 μl"},
      {"measurement": "drug quantity in tissue: brain", "setting": "[2]; 1 min", "value": 20, "unit": "cpm/mg tissue"},
      {"measurement": "drug quantity in tissue: muscle", "setting": "[2]; 1 min", "value": 28, "unit": "cpm/mg tissue"},
      {"measurement": "drug quantity in tissue: stomach", "setting": "[2]; 1 min", "value": 30, "unit": "cpm/mg tissue"},
      {"measurement": "drug quantity in tissue: brain", "setting": "[2]; 5 min", "value": 13, "unit": "cpm/mg tissue"},
      {"measurement": "drug quantity in tissue: muscle", "setting": "[2]; 5 min", "value": 32, "unit": "cpm/mg tissue"},
      {"measurement": "drug quantity in tissue: stomach", "setting": "[2]; 5 min", "value": 39, "unit": "cpm/mg tissue"},
      {"measurement": "drug quantity in tissue: brain", "setting": "[2]; 15 min", "value": 9, "unit": "cpm/mg tissue"},
      {"measurement": "drug quantity in tissue: muscle", "setting": "[2]; 15 min", "value": 15, "unit": "cpm/mg tissue"},
      {"measurement": "drug quantity in tissue: stomach", "setting": "[2]; 15 min", "value": 28, "unit": "cpm/mg tissue"},
      {"measurement": "drug quantity in tissue: brain", "setting": "[2]; 30 min", "value": 10, "unit": "cpm/mg tissue"},
      {"measurement": "drug quantity in tissue: muscle", "setting": "[2]; 30 min", "value": 22, "unit": "cpm/mg tissue"},
      {"measurement": "drug quantity in tissue: stomach", "setting": "[2]; 30 min", "value": 32, "unit": "cpm/mg tissue"},
      {"measurement": "drug quantity in tissue: brain", "setting": "[2]; 1 hour", "value": 7, "unit": "cpm/mg tissue"},
      {"measurement": "drug quantity in tissue: muscle", "setting": "[2]; 1 hour", "value": 11, "unit": "cpm/mg tissue"},
      {"measurement": "drug quantity in tissue: stomach", "setting": "[2]; 1 hour", "value": 12, "unit": "cpm/mg tissue"},
      {"measurement": "drug quantity in tissue: brain", "setting": "[2]; 4 hours", "value": 7, "unit": "cpm/mg tissue"},
      {"measurement": "drug quantity in tissue: muscle", "setting": "[2]; 4 hours", "value": 7, "unit": "cpm/mg tissue"},
      {"measurement": "drug quantity in tissue: stomach", "setting": "[2]; 4 hours", "value": 10, "unit": "cpm/mg tissue"},
      {"measurement": "drug quantity in tissue: brain", "setting": "[2]; 6 hours", "value": 6, "unit": "cpm/mg tissue"},
      {"measurement": "drug quantity in tissue: muscle", "setting": "[2]; 6 hours", "value": 6, "unit": "cpm/mg tissue"},
      {"measurement": "drug quantity in tissue: stomach", "setting": "[2]; 6 hours", "value": 9, "unit": "cpm/mg tissue"},
      {"measurement": "drug quantity in tissue: brain", "setting": "[2]; 24 hours", "value": 4, "unit": "cpm/mg tissue"},
      {"measurement": "drug quantity in tissue: muscle", "setting": "[2]; 24 hours", "value": 4, "unit": "cpm/mg tissue"},
      {"measurement": "drug quantity in tissue: stomach", "setting": "[2]; 24 hours", "value": 6, "unit": "cpm/mg tissue"},
      {"measurement": "drug quantity in tissue: brain", "setting": "[2]; 48 hours", "value": 4, "unit": "cpm/mg tissue"},
      {"measurement": "drug quantity in tissue: muscle", "setting": "[2]; 48 hours", "value": 5, "unit": "cpm/mg tissue"},
      {"measurement": "drug quantity in tissue: stomach", "setting": "[2]; 48 hours", "value": 4, "unit": "cpm/mg tissue"},
      {"measurement": "drug quantity in tissue: brain", "setting": "[2]; 72 hours", "value": 3, "unit": "cpm/mg tissue"},
      {"measurement": "drug quantity in tissue: muscle", "setting": "[2]; 72 hours", "value": 4, "unit": "cpm/mg tissue"},
      {"measurement": "drug quantity in tissue: stomach", "setting": "[2]; 72 hours", "value": 3, "unit": "cpm/mg tissue"},
      {"measurement": "toxicity", "setting": "[3]", "value": "its toxicity was extremely low"},
      {"measurement": "activity / behaviour after injection", "setting": "[3]; after intravenous injection", "value": "activity of the mice decreased and then the mice started jumping and went into spasm"},
      {"measurement": "difference between the sexes of the dead animals", "setting": "[3]; after intravenous injection", "value": "No difference was found between the sexes of the dead animals"},
      {"measurement": "eyeball, incontinence", "setting": "[3]; after intravenous injection", "value": "The eyeball protruded and changed to white, and incontinence of urine and feces was observed"},
      {"measurement": "time of death of poisoned animals", "setting": "[3]; after intravenous injection", "value": "the major proportion of the poisoned animals died instantly, an extremely few survived were also dead within 24 hours"},
      {"measurement": "change of the morbid state in dissection", "setting": "[3]; dead animals, naked eye", "value": "any change of the morbid state could not at all be observed by the naked eye"},
      {"measurement": "death ratio", "setting": "[3]; i.v. tail vein, 102.4 mg/kg", "value": 0, "unit": "%"},
      {"measurement": "provit unit (Y)", "setting": "[3]; i.v. tail vein, 102.4 mg/kg", "value": 2.60},
      {"measurement": "No. of dead animals", "setting": "[3]; i.v. tail vein, 102.4 mg/kg", "value": 0},
      {"measurement": "death ratio", "setting": "[3]; i.v. tail vein, 128 mg/kg", "value": 20, "unit": "%"},
      {"measurement": "provit unit (Y)", "setting": "[3]; i.v. tail vein, 128 mg/kg", "value": 4.16},
      {"measurement": "No. of dead animals", "setting": "[3]; i.v. tail vein, 128 mg/kg", "value": 2},
      {"measurement": "death ratio", "setting": "[3]; i.v. tail vein, 160 mg/kg", "value": 80, "unit": "%"},
      {"measurement": "provit unit (Y)", "setting": "[3]; i.v. tail vein, 160 mg/kg", "value": 5.84},
      {"measurement": "No. of dead animals", "setting": "[3]; i.v. tail vein, 160 mg/kg", "value": 8},
      {"measurement": "death ratio", "setting": "[3]; i.v. tail vein, 200 mg/kg", "value": 100, "unit": "%"},
      {"measurement": "provit unit (Y)", "setting": "[3]; i.v. tail vein, 200 mg/kg", "value": 7.40},
      {"measurement": "No. of dead animals", "setting": "[3]; i.v. tail vein, 200 mg/kg", "value": 10},
      {"measurement": "death ratio", "setting": "[3]; i.v. tail vein, 250 mg/kg", "value": 100, "unit": "%"},
      {"measurement": "No. of dead animals", "setting": "[3]; i.v. tail vein, 250 mg/kg", "value": 10},
      {"measurement": "LD50", "setting": "[3]; i.v. tail vein, Bliss method", "value": 143.11, "unit": "mg/kg"},
      {"measurement": "LD50, range of 95% reliability limit", "setting": "[3]; i.v. tail vein, Bliss method", "value": "132.95 to 154.05", "unit": "mg/kg"},
      {"measurement": "LD50", "setting": "[3]; intravenous injection, tail vein", "value": 143.11, "unit": "mg/kg"},
      {"measurement": "abnormality in the mice", "setting": "[3]; [5]", "value": "no abnormality was found in the mice"},
      {"measurement": "death of mice", "setting": "[3]; [5]", "value": "no mouse was dead"}
    ]},
    {"smiles": "CN(C)[C@@H]1C(O)=C(C(N)=O)C(=O)[C@@]2(O)C(O)=C3C(=O)c4c(O)cccc4[C@@](C)(O)[C@H]3C[C@@H]12", "note": "[tetracycline]", "values": [
      {"measurement": "synthesis of bone proteins", "setting": "[4]", "value": "promotes the synthesis of bone proteins"}
    ]}
  ]
}
